From the METLIN SMRT retention time set (Domingo-Almenara et al. 2019)

Test: gradient 5% acetonitrile 3 min, to 50% in 2 min, to 85% in 15 min, held 3 min, 100 µL/min
Conditions: column: Zorbax Extend-C18 2.1 x 50 mm; eluents: water / acetonitrile, 0.1% formic acid
In short: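 The mobile phases were water and acetonitrile, each with 0.1% formic acid, pumped at 100 μL/min through a Zorbax Extend-C18 column (2.1 × 50 mm, 1.8 μm). Pure standards were injected as mixtures of ~100 molecules and detected by a quadrupole time-of-flight mass spectrometer in positive and negative ionization mode. Retention time came from computationally picked adduct peaks, each inspected by hand.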
`CCNC(=O)C1CCCN(c2nc3ncn(CC(=O)NCc4ccc(C)cc4)c(=O)c3s2)C1` (stereo not drawn) showed an RP-LC retention time of 716 s. In the case of `O=C(Cn1cnc2ccccc2c1=O)N1CCC(Cn2cccn2)CC1`, the RP-LC retention time is reported as 616 s. `O=C(CN1C(=O)CCS(=O)(=O)c2ccccc21)Nc1ccc(F)cc1` gave an RP-LC retention time of 748 s. `O=C(c1csc(-c2ccc(N3CCSCC3)nc2)n1)N1CCC2(CC1)OCCO2` gave an RP-LC retention time of 822 s. For `COc1ccc(CC(=O)NCCc2cn(C)c3ncccc23)c(Cl)c1`, the RP-LC retention time was 690 s. In the case of `CCCc1nc(-c2c(C)cc(C)nc2NC(=O)c2ccc(F)cc2)no1`, the RP-LC retention time is reported as 864 s. `CCOC(=O)c1ccc(Nc2c(C(=O)N3CCCC(C)C3)cnc3nc(C)ccc23)cc1` (stereo not drawn) gave an RP-LC retention time of 669 s. With `COc1cccc(-c2nc(COc3cc(C)c4c(C)nn(C)c4n3)c(C)o2)c1OC` the RP-LC retention time was 1070 s. `Cc1cc(C)n(-c2ccnc(N3CCC(C(=O)NCc4ccccc4)CC3)n2)n1` showed an RP-LC retention time of 832 s. In the case of `CC1CCCCN1CCNC(=O)c1ccc2c(c1)nc1n2CCN(Cc2ccccc2)C1=O` (stereo not drawn), the RP-LC retention time is reported as 601 s. In the case of `O=C(CCc1nc2ccccc2s1)N1[C@H]2CC[C@@H]1c1cnc(-c3ccc(F)cc3)nc1C2`, the RP-LC retention time is reported as 960 s. Work on `Cc1ccc2c(c1)N(S(C)(=O)=O)CCC(C(=O)Nc1ccc(Cl)cc1C)O2` (stereo not drawn) yielded an RP-LC retention time of 1000 s. Work on `CCCCNC(=O)CCc1c(C)n(C)c2nc(-c3ccccc3)nn2c1=O` yielded an RP-LC retention time of 706 s. `Cc1cc(NC(=O)C2CCCN(c3nccnc3Oc3ccccc3)C2)ccc1Br` (stereo not drawn) showed an RP-LC retention time of 989 s. Work on `Cc1cc(C)c(NS(=O)(=O)c2cc(-c3cc(C(F)(F)F)on3)sc2C)c(C)c1` yielded an RP-LC retention time of 1230 s. Work on `CCc1nnc(-c2ccc(NS(=O)(=O)c3cccc(OC)c3)cc2)o1` yielded an RP-LC retention time of 801 s. Compound `O=C([C@@H]1C[C@H](F)CN1C(=O)Nc1cc(F)cc(F)c1)N1CCCCC1` has an RP-LC retention time of 766 s. With `O=C(NC1CCCC1)c1nc(-c2ccnc(N3CCCCC3)c2)no1` the RP-LC retention time was 763 s. Work on `O=C(c1cn(-c2cccc(Cl)c2)nn1)N1CCN(c2ccccc2F)CC1` yielded an RP-LC retention time of 882 s. With `O=C(NCCCN1CCCC1)c1ccc2ccnc(N3CCN(c4ccc(Cl)cc4)CC3)c2c1` the RP-LC retention time was 639 s. With `Cc1ccc(-n2c(N3CCCC(C(=O)Nc4ccc(Cl)cc4)C3)nc3ccsc3c2=O)cc1` (stereo not drawn) the RP-LC retention time was 1080 s. `CN(C)S(=O)(=O)c1ccc(-c2nnc(C(=O)NCc3ccc(Cl)cc3)o2)cc1` showed an RP-LC retention time of 909 s. With `COc1cc(O)ccc1-c1nc2cc(C)ccn2c1Nc1ccccc1C` the RP-LC retention time was 673 s. For `CC(=O)N1c2ccc(S(=O)(=O)N3CCCCC3)cc2CC1C(=O)NC1CCCCC1` (stereo not drawn), the RP-LC retention time was 905 s. Work on `CCOc1ccc(NC(=O)Cn2cnc3cc4c(cc32)OCCO4)cc1` yielded an RP-LC retention time of 661 s. For `CC1=C(c2ccc(C)cc2)S(=O)(=O)N=C1N1CCC(NC(=O)CCC(C)C)CC1`, the RP-LC retention time was 888 s. With `COc1ccc2c(c1)C1(CCN(S(=O)(=O)c3cc(F)ccc3C)C1)C(=O)N2` (stereo not drawn) the RP-LC retention time was 857 s. For `O=C1CCCc2cc(S(=O)(=O)N3CCC(C(=O)NC4CCCc5ccccc54)CC3)ccc2N1` (stereo not drawn), the RP-LC retention time was 795 s. With `COc1ccc(N2CC(c3noc(-c4cc(Cl)ccc4OC)n3)CC2=O)cc1` (stereo not drawn) the RP-LC retention time was 963 s. For `Cn1c(=O)c2ccn(CC(=O)NCc3cccc(Cl)c3)c2n(C)c1=O`, the RP-LC retention time was 703 s. Work on `Cc1sc(NC(=O)CCCc2nc(-c3ccccc3)no2)nc1-c1ccc(Cl)cc1` yielded an RP-LC retention time of 1190 s. With `CCOC(=O)c1cccc(N2C=C(C#N)S(=O)(=O)c3cc(F)ccc32)c1` the RP-LC retention time was 937 s. For `Cc1ccc(S(=O)(=O)N2CC(=O)N(C3CCCCC3)C(C)(C(=O)NCc3ccccc3)C2)cc1` (stereo not drawn), the RP-LC retention time was 1100 s. `C[C@H]1CN(C(=O)Nc2ccc(Cl)cc2)C[C@@H]1c1nc(-c2ccncc2)no1` gave an RP-LC retention time of 821 s. `Cc1ccc(C(C)NC(=O)Cn2ccc3c(C)nn(C)c3c2=O)cc1C` (stereo not drawn) gave an RP-LC retention time of 784 s. Work on `Cc1oc(-c2[nH]ncc2C(=O)N2CCOCC2)cc1S(=O)(=O)NCC(C)C` yielded an RP-LC retention time of 645 s. For `CCOC(=O)c1c2c3c(cccc3n(C)c1=O)C(=O)c1ccccc1-2`, the RP-LC retention time was 907 s. Work on `O=C(C1CCC1)N1CCc2sc(S(=O)(=O)NCc3ccc(F)cc3)cc2C1` yielded an RP-LC retention time of 877 s. For `Cc1ccc(F)cc1S(=O)(=O)N1CCC(N2CCN(Cc3ccccc3)C(=O)C2=O)CC1`, the RP-LC retention time was 883 s. `CC(=O)N1CCc2cc(N3CC(C(=O)NCc4cccc(C)c4)CC3=O)ccc21` (stereo not drawn) showed an RP-LC retention time of 693 s. Compound `Cc1c(C(=O)N2CCN(C(=O)COc3ccccc3)CC2)[nH]c2ccccc12` has an RP-LC retention time of 819 s. `Cc1cc(=O)n(CC(=O)Nc2ccc(F)cc2F)c(-c2ccc(F)cc2)n1` showed an RP-LC retention time of 1050 s. Work on `Cc1coc2c(C)c3oc(=O)c(CCC(=O)NCCc4ccc(S(N)(=O)=O)cc4)c(C)c3cc12` yielded an RP-LC retention time of 828 s. Compound `COCCCNC(=O)c1cc(-c2ccc(F)cc2)c[nH]1` has an RP-LC retention time of 726 s. With `O=C(CS(=O)(=O)c1ccc(Cl)cc1)Nc1nc(-c2ccc3c(c2)OCO3)cs1` the RP-LC retention time was 959 s. For `CCC(C)NC(=O)c1c2c(cn(-c3ccc(C)cc3)c1=O)C(=O)CC(C)(C)C2` (stereo not drawn), the RP-LC retention time was 1000 s. `Cc1cnn(CC(=O)N2CCc3nn(CC4CC4)c(=O)n3CC2)c1` gave an RP-LC retention time of 617 s. With `CC(C)CC(=O)N(C)CCc1noc(-c2ccc(C(=O)N3CCOCC3)cc2)n1` the RP-LC retention time was 695 s. For `COc1ccc(-c2cc(C(=O)N3CCN(S(=O)(=O)c4ccc(C(C)(C)C)cc4)CC3)[nH]n2)cc1`, the RP-LC retention time was 1030 s. Work on `COc1ccc(CNC(=O)c2cnc(OC)nc2)c(OC)c1` yielded an RP-LC retention time of 715 s. Work on `Cc1cc(C)c2nc(C)cc(C(=O)N3CCN(c4ccccn4)CC3)c2c1` yielded an RP-LC retention time of 593 s. For `Cc1ccc2nc(C(=O)NCc3ccc(Cl)cc3)cn2c1`, the RP-LC retention time was 718 s. `CCOc1ccccc1NC(=O)Cn1c(CC)nc2c(c1=O)CN(Cc1ccccc1)CC2` showed an RP-LC retention time of 687 s. With `O=C(Cc1ccc(Cl)cc1)Nc1cnc(N2CCCCC2)nc1` the RP-LC retention time was 962 s. Work on `CC(C)OCCCNC(=O)Cn1c2ccccc2c2cnn(C)c(=O)c21` yielded an RP-LC retention time of 745 s. With `Cn1c(N2CCCC(C(=O)NCCN3CCN(c4ccccc4F)CC3)C2)cc(=O)n(C)c1=O` (stereo not drawn) the RP-LC retention time was 591 s. `COc1cc(OC)cc(C(=O)N2CCC3(CC2)N=C(c2ccc(Cl)cc2)NO3)c1` gave an RP-LC retention time of 893 s. `CCc1nc2cc(-c3noc(-c4cccnc4SC)n3)ccc2o1` showed an RP-LC retention time of 1220 s. With `CC(=O)c1cccc(NC(=O)C2CC(=O)N(c3ccc4c(c3)CCN4C(C)=O)C2)c1` (stereo not drawn) the RP-LC retention time was 668 s. With `CCOc1cc(=O)c(C(=O)N2CCC(C(N)=O)CC2)nn1-c1ccc(C)cc1` the RP-LC retention time was 610 s. Work on `O=C(Nc1cccc(F)c1)C1CCCN(c2nnc3ccc(Cl)cn23)C1` (stereo not drawn) yielded an RP-LC retention time of 806 s. Compound `Cc1nnc(-c2ccc3ccn(CC(=O)Nc4cccc(C#N)c4)c3c2)o1` has an RP-LC retention time of 798 s. Compound `CC(C)C(=O)N1CCCC(c2nc(CCNC(=O)C3CCC3)cs2)C1` (stereo not drawn) has an RP-LC retention time of 694 s. For `O=C(CN1C(=O)CCC1=O)Nc1ccc2c(c1)CN(C(=O)c1cccs1)CC2`, the RP-LC retention time was 630 s. Work on `Cc1cc(C)c(S(=O)(=O)N2CC(F)(F)C[C@H]2COc2cccnc2)c(C)c1` yielded an RP-LC retention time of 834 s. Compound `Cc1ccc(-c2cc(N3CCOCC3)c3cc(NC(=O)NC4CCCCC4)ccc3n2)cc1` has an RP-LC retention time of 787 s. Compound `CCOC(=O)N1CCC2(CC1)N=C(c1ccc(OCC)cc1)CC(c1ccccc1O)N2` (stereo not drawn) has an RP-LC retention time of 772 s. Compound `Cc1cccc(S(=O)(=O)N2CCc3nc(-c4ccc(F)cc4)ncc3C2)c1` has an RP-LC retention time of 1140 s. `O=C(Cc1ccccc1F)N1CCCC1c1nc(-c2cccc(C(F)(F)F)c2)no1` (stereo not drawn) gave an RP-LC retention time of 1110 s. `COc1ccc(Cl)cc1NC(=O)c1c(O)c2cccnc2n(-c2cccc(F)c2)c1=O` showed an RP-LC retention time of 1330 s. `CC1=C(c2ccc(C)cc2)S(=O)(=O)N=C1N1CCCN(C(=O)Nc2ccccc2)CC1` gave an RP-LC retention time of 846 s. `CCNC(=O)N(C)Cc1ccc(C)s1` gave an RP-LC retention time of 722 s. `CCc1csc(-c2ccc(N3CCN(C(=O)c4ccc(F)cc4F)CC3)nc2)n1` gave an RP-LC retention time of 890 s. `O=C(NC1CC1)C1CCCN(c2nccn3nc(-c4ccccc4Cl)cc23)C1` (stereo not drawn) gave an RP-LC retention time of 788 s. Work on `Nc1nc(=O)n(C2CS[C@H](CO)O2)cc1F` (stereo partly drawn) yielded an RP-LC retention time of 571 s. In the case of `O=C(CSc1ccc(N2CCCC(C(=O)NC3CC3)C2)nn1)NCc1ccccc1` (stereo not drawn), the RP-LC retention time is reported as 603 s. `Cc1cccc(NC(=O)C2CN(C(=O)c3cc(C)on3)C2)n1` gave an RP-LC retention time of 601 s. `Cc1cc(C)n(-c2ccnc(N3CCc4ccccc43)n2)n1` gave an RP-LC retention time of 1340 s. `Cc1ccc(-c2nc3ccccc3[nH]2)cc1NC(=O)c1ccco1` showed an RP-LC retention time of 625 s. `CCC1(O)CCOC2(CCN(C(=O)C3CCCCCC3)CC2)C1` (stereo not drawn) showed an RP-LC retention time of 823 s. `NC(=O)c1cc2c(s1)N(CC1CC1)CCCC2` gave an RP-LC retention time of 827 s. `CCn1c(CC2C(=O)Nc3ccccc32)nc2ccccc2c1=O` (stereo not drawn) showed an RP-LC retention time of 730 s. With `CCOC(=O)c1c(C)c(CCC(=O)NCCN2CCCCC2)c(C)n1C` the RP-LC retention time was 573 s. `CCn1cc(-c2nc(CC(=O)Nc3ccccc3C)cs2)c2cccnc21` gave an RP-LC retention time of 980 s. Work on `O=C([C@@H]1C[C@H](F)CN1C(=O)c1cccc(F)c1)N1CCOCC1` yielded an RP-LC retention time of 614 s. Work on `Cc1nnc(N2CCCC(C(=O)NCCCN3CCCCCC3)C2)c2nn(-c3ccccc3)c(C)c12` (stereo not drawn) yielded an RP-LC retention time of 586 s. In the case of `O=C(Cc1ccccc1)NCC(=O)NC(C(=O)N1CCCc2ccccc21)c1ccccc1` (stereo not drawn), the RP-LC retention time is reported as 875 s. Compound `CN(C(=O)CSc1nnc(-c2ccc(Cl)cc2)o1)C1CCCCC1` has an RP-LC retention time of 1090 s.
